Reference: patent US9487483B2, “Complement pathway modulators and uses thereof” (priority 2012, dated 2016)

Biological target: Recombinant human factor D (Homo sapiens (Human), UniProt P00746)
Experiment: biochemical
Format: biochemical
Conditions: Factor D inhibition data using Method 1; substrate Z-Lys-thiobenzyl, fluorescence readout; read-out: IC50
Description: Human Complement Factor D Assay: Method 1
Recombinant human factor D (expressed in E. coli and purified using standard methods) at 10 nM concentration is incubated with test compound at various concentrations for 1 hour at room temperature in 0.1 M Hepes buffer, pH 7.5, containing 1 mM MgCl2, 1 M NaCl and 0.05% CHAPS. […] IC50 values are calculated from percentage of inhibition of complement factor D-activity as a function of test compound concentration.

Sequence of Recombinant human factor D (P00746 26-253): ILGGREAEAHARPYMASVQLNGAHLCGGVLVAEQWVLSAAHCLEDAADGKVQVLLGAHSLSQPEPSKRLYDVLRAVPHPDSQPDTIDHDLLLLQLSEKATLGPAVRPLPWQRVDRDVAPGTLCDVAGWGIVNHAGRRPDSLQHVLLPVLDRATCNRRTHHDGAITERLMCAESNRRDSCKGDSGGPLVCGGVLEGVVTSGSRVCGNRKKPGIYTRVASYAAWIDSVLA

Point of comparison: `CO[C@@H]1CCC[C@@H](NC(=O)[C@@H]2C[C@H]3C[C@H]3N2C(=O)Cn2nc(C(C)=O)c3cc(OCc4ncccn4)ccc32)C1` [Example 69, (1R,3S,5R)-2-{2-[3-Acetyl-5-(pyrimidin-2-ylmethoxy)-indazol-1-yl]-acetyl}-2-aza-bicyclo [3.1.0]hexane-3-carboxylic acid ((1R,3R)-3-methoxy-cyclohexyl)-amide], IC50 143 nM. Against it:
- CC1(C)CCC[C@H](NC(=O)[C@@H]2C[C@H]3C[C@H]3N2C(=O)Cn2nc(C(N)=O)c3ccccc32)C1 [Example 53, 1-{2-[(1R,3S,5R)-3-((S)-3,3-Dimethyl-cyclohexylcarbamoyl)-2-aza-bicyclo[3.1.0]hex-2-yl]-2-oxo-ethyl}-1H-indazole-3-carboxylic acid amide] — 6.3-fold higher, 905 nM
- CCc1cc2c(C(N)=O)nn(CC(=O)N3[C@@H]4C[C@@H]4C[C@H]3C(=O)N[C@@H]3CCCC(C)(C)C3)c2cn1 [Example 64, 1-{2-[(1R,3S,5R)-3-((R)-3,3-Dimethyl-cyclohexylcarbamoyl)-2-aza-bicyclo[3.1.0]hex-2-yl]-2-oxo-ethyl}-5-ethyl-1H-pyrazolo[3,4-c]pyridine-3-carboxylic acid amide] — 6-fold lower, 24 nM
- CO[C@H]1[C@@H](C(=O)N[C@H]2CCCC(C)(C)C2)N(C(=O)Cn2nc(C(N)=O)c3ccccc32)C[C@@H]1F [Example 85, 1-{2-[(2S,3S,4S)-2-((S)-3,3-Dimethyl-cyclohexylcarbamoyl)-4-fluoro-3-methoxy-pyrrolidin-1-yl]-2-oxo-ethyl}-1H-indazole-3-carboxylic acid amide] — 4.1-fold higher, 585 nM
- CC1(C)C[C@@H](O)C[C@H](NC(=O)[C@@H]2C[C@H]3C[C@H]3N2C(=O)Cn2nc(C(N)=O)c3ccccc32)C1 [Example 109, 1-{2-[(1R,3S,5R)-3-((1R,5R)-5-Hydroxy-3,3-dimethyl-cyclohexylcarbamoyl)-2-aza-bicyclo[3.1.0]hex-2-yl]-2-oxo-ethyl}-1H-indazole-3-carboxylic acid amide] — 5.1-fold lower, 28 nM
- CC1(C)CCC[C@@H](NC(=O)[C@@H]2[C@@H]3C[C@@H]3CN2C(=O)Cn2nc(C(N)=O)c3ccncc32)C1 [Example 86, 1-{2-[(1R,2S,5S)-2-((R)-3,3-Dimethyl-cyclohexylcarbamoyl)-3-aza-bicyclo[3.1.0]hex-3-yl]-2-oxo-ethyl}-1H-pyrazolo[3,4-c]pyridine-3-carboxylic acid amide] — 2.5-fold lower, 58 nM
- CC(=O)c1nn(CC(=O)N2[C@@H]3C[C@@H]3C[C@H]2C(=O)NC2CC(C)(C)CC(C)(C)C2)c2ncccc12 [Example 6, (1R,3S,5R)-2-[2-(3-Acetyl-pyrazolo[3,4-b]pyridin-1-yl)-acetyl]-2-aza-bicyclo[3.1.0]hexane-3-carboxylic acid (3,3,5,5-tetramethyl-cyclohexyl)-amide] — 2.6-fold lower, 56 nM
- NC(=O)c1nn(CC(=O)N2[C@@H]3C[C@@H]3C[C@H]2C(=O)NC2CCCC(O)(C(F)(F)F)C2)c2cnccc12 (stereo partly drawn) [Example 34, 1-{2-[(1R,3S,5R)-3-(3-Hydroxy-3-trifluoromethyl-cyclohexylcarbamoyl)-2-aza-bicyclo[3.1.0]hex-2-yl]-2-oxo-ethyl}-1H-pyrazolo[3,4-c]pyridine-3-carboxylic acid amide] — 5.1-fold higher, 728 nM
- CC[C@@H]1CCC[C@H](NC(=O)[C@@H]2C[C@H]3C[C@H]3N2C(=O)Cn2nc(C(N)=O)c3ccncc32)C1 [Example 72, 1-{2-[(1R,3S,5R)-3-((1S,3R)-3-Ethyl-cyclohexylcarbamoyl)-2-aza-bicyclo[3.1.0]hex-2-yl]-2-oxo-ethyl}-1H-pyrazolo[3,4-c]pyridine-3-carboxylic acid amide] — 12-fold higher, 1700 nM
- CC1(C)CCC[C@@H](NC(=O)[C@@H]2C[C@@]3(CO)C[C@H]3N2C(=O)Cn2nc(C(N)=O)c3ccccc32)C1 [Example 111, 1-{2-[(1R,3S,5S)-3-((R)-3,3-Dimethyl-cyclohexylcarbamoyl)-5-hydroxymethyl-2-aza-bicyclo[3.1.0]hex-2-yl]-2-oxo-ethyl}-1H-indazole-3-carboxylic acid amide] — 14-fold lower, 10 nM
- CC(=O)c1nn(CC(=O)N2[C@@H]3C[C@@H]3C[C@H]2C(=O)NC2CC(C)(C)C2)c2cnccc12 [Example 1, (1R,3S,5R)-2-[2-(3-Acetyl-pyrazolo[3,4-c]pyridin-1-yl)-acetyl]-2-aza-bicyclo[3.1.0]hexane-3-carboxylic acid (3,3-dimethyl-cyclobutyl)-amide] — within 1.5-fold, 204 nM
- CO[C@H]1[C@@H](C(=O)N[C@@H]2CCCC(C)(C)C2)N(C(=O)Cn2nc(C(N)=O)c3ccccc32)C[C@@H]1F [Example 84, 1-{2-[(2S,3S,4S)-2-((R)-3,3-Dimethyl-cyclohexylcarbamoyl)-4-fluoro-3-methoxy-pyrrolidin-1-yl]-2-oxo-ethyl}-1H-indazole-3-carboxylic acid amide] — 2.4-fold lower, 60 nM

Same assay, conditions: IC50, Factor D inhibition data using Method 1; substrate Z-Lys-thiobenzyl, fluorescence readout

`NC(=O)c1nn(CC(=O)N2[C@@H]3C[C@@H]3C[C@H]2C(=O)NC2CCCC3(CC3)C2)c2ccccc12` (single isomer, unassigned) [Example 57] showed an IC50 of 1930 nM.

Same assay, conditions: read-out: IC50

Point of comparison: `CC1(C)CCC[C@@H](NC(=O)[C@@H]2C[C@@H](F)CN2C(=O)Cn2nc(C(N)=O)c3ccncc32)C1` [Example 71, 1-{2-[(2S,4R)-2-((R)-3,3-Dimethyl-cyclohexylcarbamoyl)-4-fluoro-pyrrolidin-1-yl]-2-oxo-ethyl}-1H-pyrazolo[3,4-c]pyridine-3-carboxylic acid amide], IC50 41 nM. Against it:
- CO[C@@H]1C[C@@H](NC(=O)[C@@H]2C[C@H]3C[C@H]3N2C(=O)Cn2nc(C(N)=O)c3ccccc32)CC(C)(C)C1 [Example 105, 1-{2-[(1R,3S,5R)-3-((1S,5S)-5-Methoxy-3,3-dimethyl-cyclohexylcarbamoyl)-2-aza-bicyclo[3.1.0]hex-2-yl]-2-oxo-ethyl}-1H-indazole-3-carboxylic acid amide] — 5.5-fold higher, 225 nM
- C[C@H]1CCC[C@@H](NC(=O)[C@@H]2C[C@H]3C[C@H]3N2C(=O)Nc2cn(C(N)=O)c3ccccc23)C1 [Example 25, (1R,3S,5R)-2-Aza-bicyclo[3.1.0] hexane-2,3-dicarboxylic acid 2-[(1-carbamoyl-1H-indol-3-yl)-amide] 3-[((1R,3S)-3-methyl-cyclohexyl)-amide]] — within 1.5-fold, 28 nM
- CC(=O)c1nn(CC(=O)N2[C@@H]3C[C@@H]3C[C@H]2C(=O)N[C@H]2C[C@H](O)CC(C)(C)C2)c2ccccc12 [Example 124, (1R,3S,5R)-2-(2-(3-acetyl-1H-indazol-1-yl)acetyl)-N-((1R,5R)-5-hydroxy-3,3-dimethylcyclohexyl)-2-azabicyclo[3.1.0]hexane-3-carboxamide] — 4.1-fold lower, 10 nM
- CO[C@H]1CCC[C@H](NC(=O)[C@@H]2C[C@H]3C[C@H]3N2C(=O)Cn2nc(C(C)=O)c3ccccc32)C1 [Example 42, (1R,3S,5R)-2-[2-(3-Acetyl-indazol-1-yl)-acetyl]-2-aza-bicyclo[3.1.0]hexane-3-carboxylic acid ((1S,3S)-3-methoxy-cyclohexyl)-amide] — 26-fold higher, 1070 nM
